{
  "source": "patent US20250352555A1",
  "about": "“METHOD OF INCREASING IMMUNE CELL ACTIVATION AND/OR TREATING CANCER USING DIBENZOXAZEPINONES” (VASCULAR THERAPEUTICS PTY LTD, priority 2022, published 2025)",
  "key": {"MeWo cells": {"system": "MeWo cells", "experiment": "Invasion assay (Matrigel), MeWo", "type": "cell-based, human", "settings": "1 μM, 48 h, with greater potency than SCH772984", "protocol": "Invasion assays. Cells were grown in medium containing 10% FBS in 24-well plates. The following day the cells were scratched with a sterile toothpick, washed with PBS, and overlayed with 90% Matrigel (cat. no. 354230, Corning) (200 μl/well) containing vehicle, BT2 or SCH772984 at 1 μM. The cells were immediately photographed under a 10× objective using an Olympus CKX41 microscope, incubated at 37° C. for 1 h, and medium (800 μl/well) containing 10% FBS with vehicle, BT2 or SCH772984 at 1 μM was added. After 24 or 48 h, the cells were again photographed under a 10× objective using the same microscope. To assess the effect of BT2 on melanoma cell migration, A375 and MeWo cells were incubated with 1 μM of BT2 or SCH772984, and A375 and MeWo migration into the denuded zone was quantified after 24 or 48 h, respectively."}, "JUN": {"system": "JUN", "experiment": "Western blotting for JUN, A375 cells", "type": "cell-based, human", "settings": "A375 cells (BRAF^V600E), 24 h, dose-dependent", "protocol": "(§1) Western blotting. Cells were treated with compounds and times indicated and total cell lysates were prepared in RIPA buffer. Lysates (10 μg) were resolved by SDS-PAGE and transferred to Immobilon-P polyvinylidene difluoride (PVDF) membranes (Millipore, USA).\nMembranes were blocked with 5% skim milk and incubated with rabbit monoclonal anti-c-Jun (Abcam, cat. no. ab32137; mouse, rat and human reactive) antibody, rabbit monoclonal anti-PD-1 (Abcam, cat. no. ab214421) antibody, mouse monoclonal β-actin antibody (Sigma-Aldrich, cat. no. A5316), anti-phospho-SAPK/JNK (Thr^183/Tyr^185) (98F2) (CST, cat. no. 4671) antibody, anti-phospho-p44/42 MAPK (ERK1/2) (Thr^202/Tyr^204) (D13.14.4E) (CST, cat. no. 4370) antibody, anti-phospho-p38 MAPK (Thr^180/Tyr^182) (D3F9) (CST, cat. no. 4511) antibody, anti-SAPK/JNK antibody (CST, cat. no. 9252), anti-p44/42 MAPK (ERK1/2) (137F5) antibody (CST, cat. no. 4695), anti-p38 MAPK antibody (CST, cat. no. 9212), anti-DUSP8 antibody (Abcam, cat. no. ab198175) or anti-c-MAF (BLR045F) antibody (Abcam, cat. no. ab243901). […] Chemiluminescence was detected using the Western Lightning Chemiluminescence system (Thermo Scientific, USA) and ImageQuant™ LAS 4000 biomolecular imager (GE Healthcare Life Sciences, USA). Band intensity in images generated with the LAS 4000 was quantified using NIH Image J. […]"}, "A375 cells": {"system": "A375 cells", "experiment": "Migration assay (scratch), A375", "type": "cell-based, human", "settings": "1 μM, 24 h, with greater potency than SCH772984", "protocol": "Migration assays. Cells were grown in medium containing 10% FBS in 6-well plates. The following day the cells were scratched with a sterile toothpick, washed with PBS, and incubated in medium containing 10% FBS and vehicle, BT2 or SCH772984 at 1 μM. At 0, 24 h and 48 h the cells were photographed under a 4× objective using an Olympus CKX41 microscope. To assess the effect of BT2 on melanoma cell migration, A375 and MeWo cells were incubated with 1 μM of BT2 or SCH772984, and A375 and MeWo migration into the denuded zone was quantified after 24 or 48 h, respectively."}, "PD-1": {"system": "PD-1", "experiment": "Western blotting for PD-1, Jurkat T cells", "type": "cell-based, human", "settings": "various concentrations, 24 h", "protocol": "as §1\nMembranes were blocked with 5% skim milk and incubated with rabbit monoclonal anti-c-Jun (Abcam, cat. no. ab32137; mouse, rat and human reactive) antibody, rabbit monoclonal anti-PD-1 (Abcam, cat. no. ab214421) antibody, mouse monoclonal β-actin antibody (Sigma-Aldrich, cat. no. A5316), anti-phospho-SAPK/JNK (Thr^183/Tyr^185) (98F2) (CST, cat. no. 4671) antibody, anti-phospho-p44/42 MAPK (ERK1/2) (Thr^202/Tyr^204) (D13.14.4E) (CST, cat. no. 4370) antibody, anti-phospho-p38 MAPK (Thr^180/Tyr^182) (D3F9) (CST, cat. no. 4511) antibody, anti-SAPK/JNK antibody (CST, cat. no. 9252), anti-p44/42 MAPK (ERK1/2) (137F5) antibody (CST, cat. no. 4695), anti-p38 MAPK antibody (CST, cat. no. 9212), anti-DUSP8 antibody (Abcam, cat. no. ab198175) or anti-c-MAF (BLR045F) antibody (Abcam, cat. no. ab243901). This was followed by incubation with horseradish peroxidase-conjugated secondary goat anti-rabbit (DAKO, cat. no. P0448) or goat anti-mouse (DAKO, cat. no. P0447) antibody. Chemiluminescence was detected using the Western Lightning Chemiluminescence system (Thermo Scientific, USA) and ImageQuant™ LAS 4000 biomolecular imager (GE Healthcare Life Sciences, USA). Band intensity in images generated with the LAS 4000 was quantified using NIH Image J."}, "p-ERK": {"system": "p-ERK", "experiment": "Immunohistochemistry of B16F10 tumors (Day 17), p-ERK", "type": "in vivo, mouse", "settings": "B16F10 tumors Day 17, 200 mg/kg i.p.", "source_text": "Immunohistochemical staining and analyses. Rabbit monoclonal anti-CD3 (cat. no. ab16669; mouse, rat and human reactive), rabbit monoclonal anti-PD-1 (cat. no. ab214421), rabbit monoclonal anti-CD68 (cat. no. ab125212) antibodies were obtained from Abcam, rabbit monoclonal anti-phospho-ERK (Thr^202/Tyr^204) (cat. no. CST4370), rabbit monoclonal total ERK (cat. no. CST4695), antibodies were obtained from Cell Signaling Technology. Rabbit polyclonal anti-PD-L1 (cat. no. PA5-20343) antibody was obtained from ThermoFisher.\nFormalin fixed, paraffin embedded sections were prepared from tumors. Heat-induced epitope retrieval was applied to all deparaffinized sections (4 μm sections on Superfrost slides) with citrate buffer, pH 6.0 for 5 min at 110° C. […] Integrated optical density (IOD) or area of positive staining (red chromagen) was assessed using Image-Pro Plus software (Cybernetics, Bethesda, MD, USA). Positive staining was the average of quantitation in 4-8 fields of view under 20× or 40× objectives.\nTo assess the effect of BT2 in the same model, C57BL/6J mice bearing s.c. B16F10 tumors were administered with BT2 or vehicle (200 mg/kg or 20 ml/kg, respectively, i.p.) once a day on a 5 days-on/2 days-off schedule. […] Tumor size on Day 17 measured using callipers (FIG. 10A) correlated with isolated weighed tumors (FIG. 10B)."}},
  "data": [
    {"smiles": "CCOC(=O)Nc1ccc2c(c1)C(=O)N(CC)c1ccccc1O2", "note": "[BT2, (10-ethyl-11-oxo-10,11-dihydro-dibenzo[b,f][1,4]oxazepin-2-yl)-carbamic acid ethyl ester]", "values": [
      {"measurement": "invasion into the denuded zone of Matrigel", "setting": "MeWo cells", "value": "suppressed"},
      {"measurement": "JUN expression (Western blot)", "setting": "JUN", "value": "increased"},
      {"measurement": "migration into the denuded zone", "setting": "A375 cells", "value": "suppressed melanoma migration"},
      {"measurement": "PD-1 expression (Western blot)", "setting": "PD-1", "value": "suppressed by BT2 in a dose-dependent manner"},
      {"measurement": "ERK phosphorylation in tumors (IHC)", "setting": "p-ERK", "value": "suppression of ERK phosphorylation"}
    ]}
  ]
}
